Data: ChEMBL document CHEMBL1201862, “PubChem BioAssay data set” (2004)
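Method: 48-hour compound exposure of cells in 96-well plates, five concentrations, linear interpolation of endpoints. GI50: concentration for 50% inhibition of growth.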 Active and inactive are the calls of the source. No stated cut-off is given here; in the data, active = GI50 up to about 1.1 µM and inactive = higher.

Experiments:
Assay in all cases: NCI-60 cell line screen, 48 h
OVCAR-5 = system: OVCAR-5
MOLT-4 = system: MOLT-4
IGROV-1 = system: IGROV-1
HCC 2998 = system: HCC 2998
HOP-92 = system: HOP-92
SF-268 = system: SF-268
SK-OV-3 = system: SK-OV-3
CAKI-1 = system: CAKI-1
HL-60 = system: HL-60
SNB-19 = system: SNB-19
NCI-H460 = system: NCI-H460
SK-MEL-28 = system: SK-MEL-28
SK-MEL-2 = system: SK-MEL-2
SR = system: SR

Row | SMILES | GI50 (OVCAR-5) | GI50 (MOLT-4) | GI50 (IGROV-1) | GI50 (HCC 2998) | GI50 (HOP-92) | GI50 (SF-268) | GI50 (SK-OV-3) | GI50 (CAKI-1) | GI50 (HL-60) | GI50 (SNB-19) | GI50 (NCI-H460) | GI50 (SK-MEL-28) | GI50 (SK-MEL-2) | GI50 (SR)
1 | COC(=O)/C=C(C)/C=C/c1c(C)c(C(C)=O)c(C)n1C | > 100 µM (inactive) | 40.3 µM (inactive) | > 100 µM (inactive) | > 100 µM (inactive) | 18.3 µM (inactive) | > 100 µM (inactive) | > 100 µM (inactive) | 63.5 µM (inactive) | 49.9 µM (inactive) | > 100 µM (inactive) |  |  |  | 
2 | CCOC(=O)C1C=C2O[C@@H]3OC4(CCCCC4)O[C@@H]3C2C2C(=O)CCC(=O)[C@@]12C(=O)OC (stereo not given in full) | > 100 µM (inactive) | > 100 µM (inactive) | > 100 µM (inactive) | > 100 µM (inactive) | > 100 µM (inactive) | > 100 µM (inactive) | > 100 µM (inactive) | > 100 µM (inactive) | > 100 µM (inactive) | > 100 µM (inactive) | > 100 µM (inactive) | > 100 µM (inactive) | > 100 µM (inactive) | 
3 | COC(=O)C12C3C4C1C1C2C3C41C(=O)N(C(C)C)C(C)C (stereo not given) | > 100 µM (inactive) | > 100 µM (inactive) | > 100 µM (inactive) | > 100 µM (inactive) | > 100 µM (inactive) | > 100 µM (inactive) | > 100 µM (inactive) |  | > 100 µM (inactive) | > 100 µM (inactive) | > 100 µM (inactive) | > 100 µM (inactive) |  | > 100 µM (inactive)
4 | CC(=O)O[C@H]1C=CC23OC(=O)[C@]1(C)[C@H]2[C@H](C(=O)O)C12CC(=O)[C@@](CO)(CC[C@H]13)C2 | > 100 µM (inactive) | > 100 µM (inactive) | > 100 µM (inactive) | > 100 µM (inactive) | > 100 µM (inactive) | > 100 µM (inactive) | > 100 µM (inactive) | > 100 µM (inactive) | > 100 µM (inactive) | > 100 µM (inactive) | > 100 µM (inactive) | > 100 µM (inactive) | > 100 µM (inactive) | > 100 µM (inactive)
5 | O=C(CC(C(=O)c1ccsc1)c1cccs1)c1cccs1 (stereo not given) | > 100 µM (inactive) | 33 µM (inactive) | > 100 µM (inactive) | > 100 µM (inactive) | > 100 µM (inactive) | > 100 µM (inactive) | > 100 µM (inactive) |  | 56.8 µM (inactive) | > 100 µM (inactive) | 49 µM (inactive) | > 100 µM (inactive) | > 100 µM (inactive) | 29.6 µM (inactive)
6 | COc1cc(C(O)C(=O)c2nc3ccc([N+](=O)[O-])cc3nc2O)ccc1O (stereo not given) | > 100 µM (inactive) | > 100 µM (inactive) | > 100 µM (inactive) | 74.1 µM (inactive) |  | > 100 µM (inactive) | > 100 µM (inactive) | > 100 µM (inactive) | 70.5 µM (inactive) | > 100 µM (inactive) | > 100 µM (inactive) | 26.4 µM (inactive) | > 100 µM (inactive) | > 100 µM (inactive)
7 | NC1=NC(=O)C(CC(=O)Nc2ccc(Cl)cc2Cl)S1 (stereo not given) | > 100 µM (inactive) | 48.4 µM (inactive) | > 100 µM (inactive) | > 100 µM (inactive) |  | > 100 µM (inactive) | > 100 µM (inactive) | > 100 µM (inactive) |  | > 100 µM (inactive) | > 100 µM (inactive) | > 100 µM (inactive) | > 100 µM (inactive) | 
8 | COc1cc2c(c(OC)c1OC)-c1ccc(SC)c(=O)cc1[C@@H](NCc1ccccc1[N+](=O)[O-])CC2 | 0.0216 µM (active) | 0.0241 µM (active) | 0.0135 µM (active) | 0.0128 µM (active) | 0.0257 µM (active) | 0.0106 µM (active) | 0.0041 µM (active) | 0.01 µM (active) | 0.00313 µM (active) | 0.0246 µM (active) | 0.0168 µM (active) | 0.00444 µM (active) | 0.0217 µM (active) | 
9 | O=[N+]([O-])c1cc(C(F)(F)F)cc([N+](=O)[O-])c1CCl | 5.3 µM (inactive) | 0.248 µM (active) | 2.32 µM (inactive) |  | 4.9 µM (inactive) | 4.09 µM (inactive) | 5.73 µM (inactive) | 3.15 µM (inactive) | 1.31 µM (inactive) | 7.35 µM (inactive) | 5.78 µM (inactive) | 4.84 µM (inactive) |  | 0.388 µM (active)
10 | COC(OC)C(C)CC(=O)N(C)C (stereo not given) | > 100 µM (inactive) | > 100 µM (inactive) | > 100 µM (inactive) | > 100 µM (inactive) | > 100 µM (inactive) | > 100 µM (inactive) | > 100 µM (inactive) |  | > 100 µM (inactive) | > 100 µM (inactive) | > 100 µM (inactive) | > 100 µM (inactive) | > 100 µM (inactive) | 
11 | O=C(Nc1cc(Cl)c(Cl)cc1Cl)C(=O)C1C(=O)NC(=S)NC1=O | > 100 µM (inactive) | > 100 µM (inactive) | > 100 µM (inactive) | > 100 µM (inactive) | > 100 µM (inactive) | > 100 µM (inactive) | > 100 µM (inactive) | > 100 µM (inactive) | > 100 µM (inactive) | > 100 µM (inactive) | > 100 µM (inactive) | > 100 µM (inactive) | > 100 µM (inactive) | > 100 µM (inactive)
12 | CSC(=S)NNC(=O)c1ccncc1 | 23.9 µM (inactive) | 23.2 µM (inactive) | 14.6 µM (inactive) | 23.6 µM (inactive) | 25.3 µM (inactive) | 21.6 µM (inactive) | 28.8 µM (inactive) | 21.1 µM (inactive) | 20 µM (inactive) | 22.7 µM (inactive) | 46.6 µM (inactive) | 18.9 µM (inactive) | 17.4 µM (inactive) | 14.6 µM (inactive)
13 | C#CCNC(=O)NCCCCC(NC(=O)OCc1ccccc1)C(=O)OCc1ccccc1 (stereo not given) | > 100 µM (inactive) | 22.2 µM (inactive) | > 100 µM (inactive) | 37.9 µM (inactive) | > 72.4 µM (inactive) |  | > 100 µM (inactive) | > 59.4 µM (inactive) | 18 µM (inactive) | > 100 µM (inactive) | 52.2 µM (inactive) | > 100 µM (inactive) | > 96.2 µM (inactive) | 45 µM (inactive)
14 | O=C(/C=C/c1ccc(OCCCOc2ccc(/C=C/C(=O)c3ccc(Cl)cc3)cc2)cc1)c1ccc(Cl)cc1 | > 100 µM (inactive) | > 100 µM (inactive) | > 100 µM (inactive) | > 100 µM (inactive) | > 100 µM (inactive) | > 100 µM (inactive) | > 100 µM (inactive) | > 100 µM (inactive) | > 100 µM (inactive) | > 100 µM (inactive) | > 100 µM (inactive) | > 100 µM (inactive) | > 100 µM (inactive) | > 100 µM (inactive)
15 | CC1=CC(=O)N(c2c(C)cccc2Cl)C(C)N1 (stereo not given) | > 100 µM (inactive) | > 100 µM (inactive) | > 100 µM (inactive) | > 100 µM (inactive) | > 100 µM (inactive) | > 100 µM (inactive) | > 100 µM (inactive) | > 100 µM (inactive) | > 100 µM (inactive) | > 100 µM (inactive) | > 100 µM (inactive) | > 100 µM (inactive) | > 100 µM (inactive) | 
16 | Cc1ccc(C)c(NC(=O)/C(=N\NC(N)=S)C(C#N)c2ccccc2)c1 (stereo not given) | > 100 µM (inactive) | > 100 µM (inactive) | > 100 µM (inactive) | > 100 µM (inactive) | > 100 µM (inactive) | > 100 µM (inactive) | > 100 µM (inactive) | > 100 µM (inactive) | > 100 µM (inactive) | > 100 µM (inactive) | > 100 µM (inactive) | > 100 µM (inactive) | > 100 µM (inactive) | > 100 µM (inactive)
17 | [N-]=[N+]=N/C1=C/CCCCC(=O)C1 | > 100 µM (inactive) | > 100 µM (inactive) | > 100 µM (inactive) | > 100 µM (inactive) | 51.4 µM (inactive) | > 100 µM (inactive) | > 100 µM (inactive) | > 100 µM (inactive) | > 100 µM (inactive) | > 100 µM (inactive) | > 100 µM (inactive) | > 100 µM (inactive) | > 100 µM (inactive) | 
18 | Nc1ccn(CCNCCn2cnc3nc(N)[nH]c(=O)c32)c(=O)n1 | > 100 µM (inactive) |  | > 100 µM (inactive) | > 100 µM (inactive) | > 100 µM (inactive) | > 100 µM (inactive) |  |  | > 100 µM (inactive) | > 100 µM (inactive) | > 100 µM (inactive) | > 100 µM (inactive) | > 100 µM (inactive) | > 100 µM (inactive)
19 | [O-][n+]1c2cc3c(cc2[n+]([O-])c2c(O)cccc21)CN(CCN1CCOCC1)C3 | 38 µM (inactive) | 4.43 µM (inactive) | 12.7 µM (inactive) |  | 5.7 µM (inactive) | 11.2 µM (inactive) | 17.1 µM (inactive) | 48.9 µM (inactive) | 5.7 µM (inactive) | 73.5 µM (inactive) | 7.18 µM (inactive) | > 100 µM (inactive) | 20.7 µM (inactive) | 2.48 µM (inactive)
20 | O=C(c1ccccc1)C(c1ccccc1)C1(O)C(=O)Nc2ccc([N+](=O)[O-])cc21 (stereo not given) | > 100 µM (inactive) | 83.2 µM (inactive) | > 100 µM (inactive) | > 100 µM (inactive) | 31.8 µM (inactive) | > 100 µM (inactive) | 19.4 µM (inactive) | > 100 µM (inactive) | 42.9 µM (inactive) | > 100 µM (inactive) | > 100 µM (inactive) | > 100 µM (inactive) | > 100 µM (inactive) | 
21 | O=C(CC1(O)C(=O)Nc2ccc([N+](=O)[O-])cc21)c1ccc(Br)cc1 (stereo not given) | > 100 µM (inactive) | 35.8 µM (inactive) |  | > 100 µM (inactive) |  | 55.1 µM (inactive) | 25.1 µM (inactive) |  | 18.6 µM (inactive) | 44.3 µM (inactive) | > 100 µM (inactive) | > 100 µM (inactive) | > 100 µM (inactive) | 
